Source: US8211883B2, “Topical delivery of phthalocyanines” (priority 2004, dated 2012)

Key:
[1] = system: Chinese hamster V79-379 lung fibroblasts; assay: Clonogenic cell survival of V79 cells after photodynamic treatment; assay type: cell-based; conditions: for LD 90 (light dosage that kills 90% of cells): 18 hours, 675 nm red light; for CF10(AIPcCI)/CF10 (Pc): CF10 = product of intracellular concentration and fluence reducing survival to 10%; for F10(AIPcCI)/F10 (Pc): F10 = fluence reducing cell survival to 10%
Procedure, shortened: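 V79 cells exposed to 0.5 or 1.0 μM phthalocyanine, then irradiated about 18 h later with increasing fluences of broad-band red light (600 nm high-pass filter). Survival scored as colonies of ≥50 cells. F10 taken from survival curves; CF10 from survival against intracellular concentration × fluence; 1 μM AlPcCl run as reference.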

[2] = system: Mouse lymphoma L5178y-R cells; assay: Clonogenic cell survival of PDT-treated LY-R cells; assay type: cell-based; conditions: 0.5 μM; for activity relative to PcXII: from LD50/LD90 fluences
Protocol: Mouse lymphoma L5178y-R (hereinafter also referred to as “LY-R”) cells were grown in suspension culture as described in Ramakrishnan N., Oleinick, N. L. Clay, M. E., Homg, M. F., Antunez, A. R., and Evans H. H., Photochem. Photobiol. 50, 373-378, 1989 and Agarwal, M. L., Clay, M. E., Harvey, E. J., Evans, H. H., Antunez, A. R., and Oleinick, N. L., Cancer Res., 51, 5993-5996, 1991.
The cells were used while in exponential growth. Stock solutions of either 0.5 or 1 mM of PcIV, PcXII, PcX, PcXVIII were prepared in dimethylformamide unless otherwise indicated and added to the 10 mL medium at a rate of 1 μL per mL. After allowing 18 hours for uptake of the phthalocyanine into the cells, the flasks containing the cultures were placed on a glass exposure tray above a 500-W tungsten-halogen lamp. The exposure tray was fitted with a 600-nm high-pass filter. Flasks were exposed to various fluences of red light (up to 30 kJ/m^2) at a fluence rate of approximately 74 W/m^2). After irradiation, the cells were collected by centrifugation.
For measurement of clonogenic cell survival, aliquots were plated in medium containing soft agar as described in Ramakrishnan N., Oleinick, N. L. Clay, M. E., Homg, M. F., Antunez, A. R., and Evans H. H., Photochem. Photobiol. 50, 373-378, 1989. The aliquots were plated in sufficient numbers to produce 50-200 colonies. The dishes were kept in an incubator at 37° C. in an atmosphere of 5% CO2 and 95% air for 10-14 days to allow viable cells to form colonies. Colonies were counted by eye. Controls treated with the phthalocyanine alone had plating efficiencies of about […]. The plating efficiencies of the treated cells are normalized to the plating efficiencies of control cells in each experiment. For measurement of the induction of apoptosis, DNA was isolated from the treated and control cells 2 hours after photodynamic therapy, subjected to electrophoresis on 1.5% agarose, stained with ethidium bromide, and visualized by UV transillumination, as described in Agarwal et al. The results are shown in Tables 4, 5 and 6 and in FIG. 3.

L5178Y cells = assay: Induction of apoptosis (DNA ladder) in L5178Y cells after PDT; assay type: cell-based, Mouse; conditions: for C × F Ld90, Minimum Demonstrated Condition to Induce Apoptosis: product of concentration and fluence
Protocol: The aliquots were plated in sufficient numbers to produce 50-200 colonies. The dishes were kept in an incubator at 37° C. in an atmosphere of 5% CO2 and 95% air for 10-14 days to allow viable cells to form colonies. Colonies were counted by eye. […] The plating efficiencies of the treated cells are normalized to the plating efficiencies of control cells in each experiment.
Cells were treated with various concentrations of the compounds listed in the table and various light fluences. DNA gels were prepared and examined for the characteristic “ladder” pattern of DNA fragments. For each Pc, the minimum total PDT dose tested (calculated as the product of the minimum phthalocyanine concentration and the minimum fluence) which produced visible DNA fragments is recorded. […] PcXVIII was also added at 0.5 and 1.0 μM.

[3] = 0.5 μM, VII# preplated data only, XXI* not totally soluble at 0.5 mM

Row | Structure (SMILES) | LD 90 (light dosage that kills 90% of cells) [1, 3] [kj/m^2] | Ld50 (fluence that reduces cell survival to 50%) [2] [kJ/m^2] | Ld90 (fluence that reduces cell survival to 10%) [2] [kJ/m^2] | activity relative to PcXII [2] | normalized plating efficiency, AVG. ([2]; light dose 0 kJ/m^2) | normalized plating efficiency, AVG. ([2]; light dose 1 kJ/m^2) | normalized plating efficiency, AVG. ([2]; light dose 2 kJ/m^2) | normalized plating efficiency, AVG. ([2]; light dose 2.5 kJ/m^2) | normalized plating efficiency, AVG. ([2]; light dose 3 kJ/m^2) | normalized plating efficiency, AVG. ([2]; light dose 5 kJ/m^2) | Fluence, Minimum Demonstrated Condition to Induce Apoptosis (L5178Y cells; 0.4 μM) [kJ/m^2] | C × F Ld90, Minimum Demonstrated Condition to Induce Apoptosis (L5178Y cells; 0.4 μM) [kJ/m^2] | normalized plating efficiency, AVG. ([2]; light dose 4 kJ/m^2) | further results
1 | CN(C)CCC[Si](C)(C)O[Si]1(O)n2c3c4ccccc4c2N=C2N=C(N=c4c5ccccc5c(n41)=NC1=NC(=N3)c3ccccc31)c1ccccc12 (centres unmarked) [Compound IV, HOSiPcOSi(CH3)2(CH2)3N(CH3)2] | 4 | 1.38 | 2.15 | about 80% | 100 | 80.9 | 19.7 | 0.82 | 0.16 | 0.014 | 3.0 | 1.2 | – | CF10(AIPcCI)/CF10 (Pc) ([1]; 0.5 μM): 3.9; F10(AIPcCI)/F10 (Pc) ([1]; 0.5 μM): 1.85; CF10(AIPcCI)/CF10 (Pc) ([1]; 1.0 μM): 3.5; F10(AIPcCI)/F10 (Pc) ([1]; 1.0 μM): 4.25
2 | CN(C)CCC[Si](C)(C)O[Si]1(O[Si](C)(C)CCCN(C)C)n2c3c4ccccc4c2N=C2N=C(N=c4c5ccccc5c(n41)=NC1=NC(=N3)c3ccccc31)c1ccccc12 [Compound XII, SiPc[OSi(CH3)2(CH2)3N(CH3)2]2] | 3.3 | 1.11 | 1.70 | – | 100 | 82.2 | 5.23 | 0.90 | 0.15 | 0.0027 | 3.0 | 1.2 | 0.014 | –
3 | CCN(CCC[Si](C)(C)O[Si]1(O[Si](C)(C)CCCN(CC)CCN(C)C)n2c3c4ccccc4c2N=C2N=C(N=c4c5ccccc5c(n41)=NC1=NC(=N3)c3ccccc31)c1ccccc12)CCN(C)C [Compound XVIII, SiPc[OSi(CH3)2(CH2)3N(CH2CH3)(CH2)2N(CH3)2]2] | – | 5.00 | 7.81 | 22% | 100 | – | 81.8 | – | 73.6 | 52.1 | – | – | 64.0 | LD 90 (light dosage that kills 90% of cells) ([1]; 1 μM): 7 kj/m^2; normalized plating efficiency, AVG. ([2]; light dose 6 kJ/m^2): 33.8; normalized plating efficiency, AVG. ([2]; light dose 8 kJ/m^2): 9.13; normalized plating efficiency, AVG. ([2]; light dose 10 kJ/m^2): 3.0; Fluence, Minimum Demonstrated Condition to Induce Apoptosis (L5178Y cells; 0.5 μM): 10.0 kJ/m^2; C × F Ld90, Minimum Demonstrated Condition to Induce Apoptosis (L5178Y cells; 0.5 μM): 5.0 kJ/m^2; Fluence, Minimum Demonstrated Condition to Induce Apoptosis (L5178Y cells; 1.0 μM): 3.0 kJ/m^2; C × F Ld90, Minimum Demonstrated Condition to Induce Apoptosis (L5178Y cells; 1.0 μM): 3.0 kJ/m^2
